# Test results reported in US5250673A, “2'-deoxy-5-substituted uridine derivatives” (priority 1983, dated 1993).
# Read-outs that look alike come from different tables or passages of the source.
# Assays:
# Sarcoma 180 [1] = assay: calculation of therapeutic index (B)/(A), Sarcoma 180 mice; format: in vivo, mouse; parameters: key: C = toxicity value (B) / antitumor activity value (A); conditions: Table 1-c; oral, once a day, 7 days
# Experimental: (c) Calculation of therapeutic index
# By the use of the antitumor activity value (hereinafter referred to as A) and the toxicity value (hereinafter referred to as B) of each compound, which were obtained in the above items (a) and (b), respectively, therapeutic index (hereinafter referred to as C) was calculated in accordance with the following equation.
# Therapeutic index (C)=^(B)(A)
# Sarcoma 180 [2] = assay: antitumor activity: 50% inhibition of tumor enhancement, Sarcoma 180 transplanted in mice; format: in vivo, mouse; conditions: oral, once a day, 7 days, male ICR/JCL mice, tumor weight day 10
# Experimental: (a) Method for determining of antitumor activity value
# 5×10^6 Cells of mouse-transplantable tumor Sarcoma 180 were transplanted to each male ICR/JCL-strain mouse (having a weight of 27 to 30 g) subcutaneously at the back. Each test compound dissolved or suspended in 0.1% Tween 80^(*) - 0.5% CMC solution was orally administered to various test groups each consisting of 7 mice once a day for 7 consecutive days from the next day of tumor transplanting, in an amount of 1.0 ml of solution or suspension per 100 g weight per day. As to a control group, the same Tween 80-CMC solution containing no test compound was orally administered once a day for 7 consecutive days in an amount of 1.0 ml per 100 g weight per day. (*) (A trademark for a series of surface which is a polyoxyethylene derivative of fatty acid partial ester of sorbitol anhydride, manufactured by I.C.I. U.S., Inc.)
# On the tenth day from the tumor transplanting, an average tumor weight for each administration level of each test compound was determined. This weight was compared with an average tumor weight in control group, and the ratio of tumor enhancement inhibition at each administration level of each test compound compared with control group was calculated. From these calculations, the administration level of each test compound at which the ratio of tumor enhancement inhibition become 50% was obtained and the level (amount) was taken as the antitumor activity value of each compound.
# [3] = toxicity value: 50% inhibition of weight increase of test animal (Sarcoma 180 tumor-transplanted mice); format: in vivo, mouse; conditions: oral, once a day, 7 days, male ICR/JCL mice; for TD50 at 240 h: mouse, sarcoma 180 bearing mice, read-out: Toxicity value (B) Administration amount of test compound at which weight increase of test animal is inhibited by 50% compared with that of control group
# Experimental: (b) Method for determining toxicity value
# Hitherto, toxicity values of anti-malignant tumor agents have been calculated on the bases of LD50 of test animals, in most cases. […] Therefore, in the present test, accumulated toxicity, which well represents the toxicity of anti-malignant tumor agents, was focused on and, as an indication for sensitive detection of the accumulated toxicity, inhibition of weight increase of test animal was measured. That is, when antitumor activity value was determined in the above item (a), the weight of each mouse of each test groups for each test compounds was measured daily from the day of tumor transplanting, immediately before administration.
# On the day of tumor weight measurement, the average net weight increase of each mouse of each test groups for each test compounds from the day of tumor transplanting was measured. These increases were compared with the average net weight increase of control group and the ratio of net weight increase of each test groups of each test compounds to that of control group was calculated. From these calculations, there was obtained an addition amount of each test compound at which weight increase is inhibited by 50% compared with that of control group, and that amount was taken as a toxicity value of each compound.
# [4] = reported in literature; cited from earlier work
# [5] = compared with 5-FU; cited from earlier work
# [6] = in vivo; cited from earlier work
# [7] = relative to 5-FU; cited from earlier work
# [8] = administration limited to intraarterial injection; cited from earlier work
# [9] = compared with 5-FU; cited from earlier work; remark: listed apart in the source
# nucleosidephosphorylase = conditions: administered in vivo; cited from earlier work
Structure (SMILES),Therapeutic index (C) = (B)/(A) (Sarcoma 180 [1]),Antitumor activity value (A) Administration amount of test compound at which tumor enhancement is inhibited by 50% compared with that of control group (Sarcoma 180 [2]; Table 1-c) [mg/kg/day],TD50 at 240 h ([3]; Table 1-c) [mg/kg],also measured
"CCOC[C@H]1O[C@@H](n2cc(F)c(=O)n(C(=O)c3ccccc3)c2=O)C[C@@H]1O [Compound 35, 3-benzoyl-2'-deoxy-5'-O-ethyl-5-fluorouridine]",1.37,51,70,
CCOC[C@H]1O[C@@H](n2cc(F)c(=O)[nH]c2=O)C[C@@H]1O [Compound 39],2.39,28,67,
O=c1[nH]c(=O)n([C@H]2C[C@H](O)[C@@H](COCc3ccccc3)O2)cc1F [Compound 41],2.31,13,30,
"O=c1[nH]c(=O)n([C@H]2C[C@H](O)[C@@H](CO)O2)cc1C(F)(F)F [F3 TdR, 2'-Deoxy-5-trifluoromethyl uridine, reference compound]",,,,"Antitumor activity value (A) Administration amount of test compound at which tumor enhancement is inhibited by 50% compared with that of control group (Sarcoma 180 [2]; Table 1-a): 68 mg/kg/day; Antitumor activity value (A) Administration amount of test compound at which tumor enhancement is inhibited by 50% compared with that of control group (Sarcoma 180 [2]; Table 1-b): 58 mg/kg/day; Toxicity value (B) Administration amount of test compound at which weight increase of test animal is inhibited by 50% compared with that of control group ([3]; Table 1-a, 14400 min): 49 mg/kg/day; TD50 at 240 h ([3]; Table 1-b): 40 mg/kg; antitumor activity [4]: has an antitumor activity"
"O=c1[nH]c(=O)n([C@H]2C[C@H](O)[C@@H](CO)O2)cc1F [FudR, 2'-deoxy-5-fluorouridine]",0.76,93,71,conversion in vivo into active form [5]: more easily than 5-FU; excretion [6]: excreted very quickly; prolonged action in blood [6]: poor prolonged action in blood; carcinostatic activity in vitro [7]: about 100 times that of 5-fluorouracil; toxicity as a medicine [8]: very toxic; carcinostatic effect [9]: inferior to 5-FU in carcinostatic effect; decomposition into 5-FU by nucleosidephosphorylase (nucleosidephosphorylase): easily decomposed into 5-FU by nucleosidephosphorylase
